According to US20210349082A1, “ANALYSIS INSTRUMENT” (First Light Diagnostics, Inc., priority 2018, published 2021):
Like-named read-outs stand apart in the source and are kept apart here.

What was measured:
[1] = tested on: K. pneumonaie strain in clinical urine sample BIUR0084; assay: Automated MultiPath AST cartridge on clinical urine sample; assay type: cell-based; settings: clinical urine sample BIUR0084 (K. pneumoniae); 2 antibiotic concentrations; 4 h growth; fold growth value of 2
P. aeruginosa = settings: cited from earlier work

Molecule	sensitive/resistant call by MulitPath [1]	previously determined antibiotic resistance (P. aeruginosa; P. aeruginosa ATCC 27853)	previously determined antibiotic resistance (P. aeruginosa; P. aeruginosa CDC0105)	previously determined antibiotic resistance (P. aeruginosa; P. aeruginosa CDC0111)	previously determined antibiotic resistance (P. aeruginosa; P. aeruginosa CDC0232)	previously determined antibiotic resistance (P. aeruginosa; P. aeruginosa CDC0242)	previously determined antibiotic resistance (P. aeruginosa; P. aeruginosa CDC0247)	previously determined antibiotic resistance (P. aeruginosa; P. aeruginosa CDC0251)	previously determined antibiotic resistance (P. aeruginosa; P. aeruginosa CDC0253)	previously determined antibiotic resistance (P. aeruginosa; P. aeruginosa CDC0259)	previously determined antibiotic resistance (P. aeruginosa; P. aeruginosa CDC0261)	previously determined antibiotic resistance (P. aeruginosa; P. aeruginosa CDC0262)
Trimethoprim/Sulfamethoxazole	resistant	Intrinsically	Intrinsically	Intrinsically	Intrinsically	Intrinsically	Intrinsically	Intrinsically	Intrinsically	Intrinsically	Intrinsically	Intrinsically
Cc1nnc(SCC2=C(C(=O)O)N3C(=O)[C@@H](NC(=O)Cn4cnnn4)[C@H]3SC2)s1 [Cefazolin]	resistant											
